Source: ChEMBL document CHEMBL1201862, “PubChem BioAssay data set” (2004)
Active and inactive are the calls of the source.

Tests used:
Format in all cases: functional
[1] = biological target: T1, Sentrin-specific protease 7 (Homo sapiens, UniProt Q9BQF6);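 further: Luminescence-based dose-response confirmation of ultra-high-throughput screening hits, measuring inhibition of SENP7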
T1 sequence (Q9BQF6 whole entry): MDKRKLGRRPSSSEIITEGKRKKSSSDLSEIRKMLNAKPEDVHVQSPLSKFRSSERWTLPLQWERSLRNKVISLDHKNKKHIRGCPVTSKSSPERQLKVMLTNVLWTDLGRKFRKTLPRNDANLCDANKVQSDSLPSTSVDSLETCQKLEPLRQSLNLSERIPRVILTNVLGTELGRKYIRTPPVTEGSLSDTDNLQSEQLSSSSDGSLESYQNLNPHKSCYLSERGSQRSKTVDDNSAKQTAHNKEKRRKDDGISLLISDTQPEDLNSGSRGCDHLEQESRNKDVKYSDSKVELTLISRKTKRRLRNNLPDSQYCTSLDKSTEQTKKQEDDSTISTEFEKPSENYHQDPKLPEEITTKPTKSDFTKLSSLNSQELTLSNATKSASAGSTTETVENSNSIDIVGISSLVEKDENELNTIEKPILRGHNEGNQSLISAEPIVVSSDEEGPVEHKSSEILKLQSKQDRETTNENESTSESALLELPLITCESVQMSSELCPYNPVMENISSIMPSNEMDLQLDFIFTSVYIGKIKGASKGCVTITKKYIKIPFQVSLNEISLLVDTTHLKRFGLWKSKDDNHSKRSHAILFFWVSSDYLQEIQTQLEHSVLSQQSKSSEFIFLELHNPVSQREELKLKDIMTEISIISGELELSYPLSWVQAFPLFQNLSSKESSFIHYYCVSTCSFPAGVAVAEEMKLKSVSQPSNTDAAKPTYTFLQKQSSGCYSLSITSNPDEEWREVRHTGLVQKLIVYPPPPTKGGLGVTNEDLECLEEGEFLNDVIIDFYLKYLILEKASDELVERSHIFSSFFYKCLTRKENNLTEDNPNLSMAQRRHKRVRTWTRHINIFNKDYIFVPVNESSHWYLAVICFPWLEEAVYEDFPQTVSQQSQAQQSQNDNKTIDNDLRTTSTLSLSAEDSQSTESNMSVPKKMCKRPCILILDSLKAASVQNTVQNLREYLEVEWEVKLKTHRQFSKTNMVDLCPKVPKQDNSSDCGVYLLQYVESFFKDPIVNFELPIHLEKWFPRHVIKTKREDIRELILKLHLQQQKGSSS

[2] = biological target: Photoreceptor-specific nuclear receptor (Homo sapiens, UniProt Q9Y5X4);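 further: potency for compounds that break the NR2E3 corepressor complex and count as activators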
[3] = biological target: Receptor-type tyrosine-protein kinase FLT3 (Homo sapiens, UniProt P36888);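 further: FLT3 was tested as one member of a kinome-wide kinase panel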
[4] = biological target: Serine/threonine-protein kinase Nek4 (Homo sapiens, UniProt P51957)
[5] = biological target: Calcium/calmodulin-dependent protein kinase type II subunit gamma (Homo sapiens, UniProt Q13555)
[6] = biological target: Serine/threonine-protein kinase 17A (Homo sapiens, UniProt Q9UEE5)
[7] = biological target: Eukaryotic elongation factor 2 kinase (Homo sapiens, UniProt O00418)
[8] = biological target: Protein kinase C delta type (Homo sapiens, UniProt Q05655)
Protein kinase C delta type, sequence (Q05655 whole entry): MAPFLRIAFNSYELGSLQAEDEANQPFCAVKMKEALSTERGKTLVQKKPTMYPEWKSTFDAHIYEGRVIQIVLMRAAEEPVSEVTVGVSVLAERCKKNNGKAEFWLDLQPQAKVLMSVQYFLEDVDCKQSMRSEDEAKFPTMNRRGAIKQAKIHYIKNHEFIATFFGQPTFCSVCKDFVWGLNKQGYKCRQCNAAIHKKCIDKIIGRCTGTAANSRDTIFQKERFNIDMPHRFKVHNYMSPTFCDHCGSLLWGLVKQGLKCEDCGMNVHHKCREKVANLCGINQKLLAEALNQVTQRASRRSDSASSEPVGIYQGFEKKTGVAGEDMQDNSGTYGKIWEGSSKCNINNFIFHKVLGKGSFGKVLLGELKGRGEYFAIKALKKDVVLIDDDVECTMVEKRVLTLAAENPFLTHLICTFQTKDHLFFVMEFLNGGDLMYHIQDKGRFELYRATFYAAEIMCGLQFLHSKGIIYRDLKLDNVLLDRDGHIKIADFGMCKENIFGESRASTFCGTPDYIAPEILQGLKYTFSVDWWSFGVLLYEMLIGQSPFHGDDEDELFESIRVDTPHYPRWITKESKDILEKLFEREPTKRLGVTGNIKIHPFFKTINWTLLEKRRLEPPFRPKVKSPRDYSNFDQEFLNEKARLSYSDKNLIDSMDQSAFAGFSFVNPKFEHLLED

[9] = biological target: Leucine-rich repeat serine/threonine-protein kinase 2 (Homo sapiens, UniProt Q5S007);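 further: value from a broad kinome-wide panel profiling study in which LRRK2 was one of the kinases tested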
[10] = biological target: Mitogen-activated protein kinase 14 (Homo sapiens, UniProt Q16539);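 further: part of a kinome-wide panel, MAPK14 entry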
Mitogen-activated protein kinase 14, sequence (Q16539 whole entry): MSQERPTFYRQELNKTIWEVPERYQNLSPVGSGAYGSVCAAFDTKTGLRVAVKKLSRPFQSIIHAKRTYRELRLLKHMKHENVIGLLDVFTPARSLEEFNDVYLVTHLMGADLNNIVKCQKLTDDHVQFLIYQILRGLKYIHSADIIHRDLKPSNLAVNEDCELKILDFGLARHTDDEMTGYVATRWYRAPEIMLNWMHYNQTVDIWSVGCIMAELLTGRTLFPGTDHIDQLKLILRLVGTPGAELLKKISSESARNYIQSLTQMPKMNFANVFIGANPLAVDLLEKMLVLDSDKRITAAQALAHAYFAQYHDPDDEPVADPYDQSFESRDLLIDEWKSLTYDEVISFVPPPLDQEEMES

[11] = biological target: Proto-oncogene tyrosine-protein kinase receptor Ret (Homo sapiens, UniProt P07949);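 further: measured within a kinome-wide profiling panel, RET as the panel member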
Proto-oncogene tyrosine-protein kinase receptor Ret, sequence (P07949 whole entry): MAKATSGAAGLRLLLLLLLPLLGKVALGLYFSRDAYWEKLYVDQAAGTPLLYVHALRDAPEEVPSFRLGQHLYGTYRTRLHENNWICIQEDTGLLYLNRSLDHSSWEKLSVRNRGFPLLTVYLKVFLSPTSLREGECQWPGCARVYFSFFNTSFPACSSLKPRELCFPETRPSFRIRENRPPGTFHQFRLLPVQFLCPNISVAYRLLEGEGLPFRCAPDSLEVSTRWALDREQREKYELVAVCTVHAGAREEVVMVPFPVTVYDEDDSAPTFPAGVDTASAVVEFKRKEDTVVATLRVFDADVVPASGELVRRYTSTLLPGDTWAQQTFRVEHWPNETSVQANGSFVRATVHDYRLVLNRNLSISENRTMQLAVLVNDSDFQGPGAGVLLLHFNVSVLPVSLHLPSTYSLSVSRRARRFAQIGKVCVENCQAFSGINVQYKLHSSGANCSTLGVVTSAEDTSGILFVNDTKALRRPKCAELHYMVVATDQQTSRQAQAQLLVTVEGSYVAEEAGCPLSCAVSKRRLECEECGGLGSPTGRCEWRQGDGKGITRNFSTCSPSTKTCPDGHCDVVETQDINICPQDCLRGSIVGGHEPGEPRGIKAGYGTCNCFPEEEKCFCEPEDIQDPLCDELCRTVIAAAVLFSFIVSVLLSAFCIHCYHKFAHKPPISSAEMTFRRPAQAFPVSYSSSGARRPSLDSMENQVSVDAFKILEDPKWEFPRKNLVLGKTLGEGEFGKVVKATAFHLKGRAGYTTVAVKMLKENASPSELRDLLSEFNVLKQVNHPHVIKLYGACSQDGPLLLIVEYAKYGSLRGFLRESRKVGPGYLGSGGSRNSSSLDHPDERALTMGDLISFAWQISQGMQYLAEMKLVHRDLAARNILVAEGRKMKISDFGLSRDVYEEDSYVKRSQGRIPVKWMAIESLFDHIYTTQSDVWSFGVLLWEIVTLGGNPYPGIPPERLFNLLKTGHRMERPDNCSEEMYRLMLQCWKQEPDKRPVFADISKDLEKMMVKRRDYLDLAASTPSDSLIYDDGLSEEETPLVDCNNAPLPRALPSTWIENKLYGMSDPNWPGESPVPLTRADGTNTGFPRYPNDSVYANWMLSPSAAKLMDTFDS

[12] = biological target: STE20-like serine/threonine-protein kinase (Homo sapiens, UniProt Q9H2G2)
STE20-like serine/threonine-protein kinase, sequence (Q9H2G2 whole entry, the tested form may be a part): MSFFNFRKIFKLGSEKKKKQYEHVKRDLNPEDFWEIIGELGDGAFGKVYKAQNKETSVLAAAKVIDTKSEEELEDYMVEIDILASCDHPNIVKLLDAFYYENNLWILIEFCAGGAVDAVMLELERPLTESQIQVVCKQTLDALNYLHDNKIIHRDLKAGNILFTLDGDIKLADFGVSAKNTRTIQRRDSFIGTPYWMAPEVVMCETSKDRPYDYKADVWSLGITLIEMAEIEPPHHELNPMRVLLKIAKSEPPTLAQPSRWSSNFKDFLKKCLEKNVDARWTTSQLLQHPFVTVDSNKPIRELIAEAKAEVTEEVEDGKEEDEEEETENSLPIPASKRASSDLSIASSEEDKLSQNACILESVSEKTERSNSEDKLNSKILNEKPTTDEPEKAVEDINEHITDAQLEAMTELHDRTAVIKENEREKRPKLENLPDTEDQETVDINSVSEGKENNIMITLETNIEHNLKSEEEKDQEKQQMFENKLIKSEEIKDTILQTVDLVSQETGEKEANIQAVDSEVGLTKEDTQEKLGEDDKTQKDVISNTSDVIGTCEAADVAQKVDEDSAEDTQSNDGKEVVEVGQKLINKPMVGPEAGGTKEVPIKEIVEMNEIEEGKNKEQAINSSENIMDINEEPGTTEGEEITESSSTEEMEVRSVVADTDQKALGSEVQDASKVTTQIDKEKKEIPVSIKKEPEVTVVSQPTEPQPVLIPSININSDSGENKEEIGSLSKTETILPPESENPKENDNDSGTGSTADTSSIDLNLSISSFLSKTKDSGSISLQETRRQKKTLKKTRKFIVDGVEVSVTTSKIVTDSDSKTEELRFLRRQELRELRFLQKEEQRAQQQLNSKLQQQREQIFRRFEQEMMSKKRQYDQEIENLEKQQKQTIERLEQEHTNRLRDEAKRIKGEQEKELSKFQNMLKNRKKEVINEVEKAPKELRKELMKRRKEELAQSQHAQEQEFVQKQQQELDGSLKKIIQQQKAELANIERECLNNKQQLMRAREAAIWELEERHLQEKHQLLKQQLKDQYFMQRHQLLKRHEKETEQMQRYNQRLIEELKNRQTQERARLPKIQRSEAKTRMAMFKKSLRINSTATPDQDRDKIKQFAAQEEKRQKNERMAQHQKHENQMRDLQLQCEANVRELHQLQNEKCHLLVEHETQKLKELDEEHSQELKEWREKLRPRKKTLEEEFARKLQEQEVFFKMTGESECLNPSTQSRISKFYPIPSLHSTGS

LIM domain kinase 1 = LIM domain kinase 1 (Homo sapiens, UniProt P53667); assay: Navigating the Kinome. Panel member name: LIMK1
[13] = biological target: Fibroblast growth factor receptor 1 (Homo sapiens, UniProt P11362)
[14] = biological target: Non-receptor tyrosine-protein kinase TYK2 (Homo sapiens, UniProt P29597)
[15] = biological target: Homeodomain-interacting protein kinase 2 (Homo sapiens, UniProt Q9H2X6);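 further: measured within a kinome-wide kinase profiling panel, HIPK2 being one panel member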
Homeodomain-interacting protein kinase 2, sequence (Q9H2X6 whole entry): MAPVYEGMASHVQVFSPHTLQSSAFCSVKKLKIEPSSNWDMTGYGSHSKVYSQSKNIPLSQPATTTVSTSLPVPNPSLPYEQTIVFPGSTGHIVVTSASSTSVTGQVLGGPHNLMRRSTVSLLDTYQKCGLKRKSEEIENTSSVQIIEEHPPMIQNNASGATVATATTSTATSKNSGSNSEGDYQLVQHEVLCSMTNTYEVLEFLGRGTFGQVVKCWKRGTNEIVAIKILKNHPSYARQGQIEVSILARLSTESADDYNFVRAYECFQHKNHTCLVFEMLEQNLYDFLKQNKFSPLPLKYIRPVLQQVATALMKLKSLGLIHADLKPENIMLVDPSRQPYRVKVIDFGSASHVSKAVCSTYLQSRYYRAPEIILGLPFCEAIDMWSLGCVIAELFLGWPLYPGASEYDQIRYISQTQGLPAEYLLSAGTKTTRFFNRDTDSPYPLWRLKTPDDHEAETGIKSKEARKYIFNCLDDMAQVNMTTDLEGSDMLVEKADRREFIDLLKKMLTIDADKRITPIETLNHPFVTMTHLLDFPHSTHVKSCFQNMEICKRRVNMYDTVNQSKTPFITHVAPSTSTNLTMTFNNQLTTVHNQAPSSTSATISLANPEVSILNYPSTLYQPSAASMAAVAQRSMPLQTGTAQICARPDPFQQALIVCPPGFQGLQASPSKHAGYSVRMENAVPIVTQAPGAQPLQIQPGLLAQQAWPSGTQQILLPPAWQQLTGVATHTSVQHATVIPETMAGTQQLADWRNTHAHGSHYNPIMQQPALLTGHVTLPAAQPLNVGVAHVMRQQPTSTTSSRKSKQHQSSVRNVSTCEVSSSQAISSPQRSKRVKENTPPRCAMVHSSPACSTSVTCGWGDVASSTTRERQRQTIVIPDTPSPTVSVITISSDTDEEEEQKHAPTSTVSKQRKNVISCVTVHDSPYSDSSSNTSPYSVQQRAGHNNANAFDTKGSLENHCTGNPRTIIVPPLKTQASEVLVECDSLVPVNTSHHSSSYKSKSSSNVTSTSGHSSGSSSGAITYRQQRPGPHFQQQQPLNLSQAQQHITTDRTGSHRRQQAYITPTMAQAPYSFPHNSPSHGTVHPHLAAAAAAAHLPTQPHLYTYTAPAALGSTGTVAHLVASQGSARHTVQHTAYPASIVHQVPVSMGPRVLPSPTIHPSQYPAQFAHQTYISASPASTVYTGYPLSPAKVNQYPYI

[16] = biological target: Serine/threonine-protein kinase PLK1 (Homo sapiens, UniProt P53350);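 further: PLK1 measured as one member of a kinome-wide profiling panel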
[17] = biological target: Calcium/calmodulin-dependent protein kinase type II subunit delta (Homo sapiens, UniProt Q13557)
[18] = biological target: Tyrosine-protein kinase JAK3 (Homo sapiens, UniProt P52333)
[19] = biological target: Tyrosine-protein kinase Lck (Homo sapiens, UniProt P06239);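 further: lck was assayed as one member of a kinase panel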
Tyrosine-protein kinase Lck, sequence (P06239 whole entry): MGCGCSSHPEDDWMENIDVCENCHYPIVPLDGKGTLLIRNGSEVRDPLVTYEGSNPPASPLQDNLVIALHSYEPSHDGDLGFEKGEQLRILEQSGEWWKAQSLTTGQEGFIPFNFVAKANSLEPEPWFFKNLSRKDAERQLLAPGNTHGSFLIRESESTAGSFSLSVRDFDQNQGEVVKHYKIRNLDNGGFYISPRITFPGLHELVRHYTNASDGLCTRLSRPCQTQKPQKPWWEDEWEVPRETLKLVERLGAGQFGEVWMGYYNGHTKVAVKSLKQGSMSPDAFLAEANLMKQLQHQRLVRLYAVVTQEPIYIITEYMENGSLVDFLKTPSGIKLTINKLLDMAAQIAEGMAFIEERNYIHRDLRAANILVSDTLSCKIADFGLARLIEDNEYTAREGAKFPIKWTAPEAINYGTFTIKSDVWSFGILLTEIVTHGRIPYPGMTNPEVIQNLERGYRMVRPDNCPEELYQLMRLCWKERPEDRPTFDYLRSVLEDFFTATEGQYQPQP

[20] = biological target: Vascular endothelial growth factor receptor 3 (Homo sapiens, UniProt P35916);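 further: value from a kinome-wide profiling panel, with FLT4 as the panel member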

Cc1c(NC(=O)C(C)OC(=O)c2ccc([N+](=O)[O-])s2)c(=O)n(-c2ccccc2)n1C (stereo unspecified)
IC50 [1]: 10.4 µM (active)

COc1cc(Br)c(C(=O)c2nccc3cc(OC)c(OC)cc23)cc1OC
IC50 [2]: > 39.8 µM (not active)

CC(N)C1CCC(C(=O)Nc2ccnc3[nH]ccc23)CC1 (stereo unspecified)
Ki [3]: > 3.16 µM (inactive) | Ki [4]: > 6.31 µM (inactive) | Ki [5]: > 6.31 µM (inactive) | Ki [6]: 3.98 µM (active) | Ki [7]: > 3.98 µM (inactive) | Ki [8]: 0.158 µM (active) | Ki [9]: 0.02 µM (active) | Ki [10]: > 3.98 µM (inactive) | Ki [11]: > 2.51 µM (inactive) | Ki [12]: 5.01 µM (active) | Ki (LIM domain kinase 1): 1 µM (active) | Ki [13]: > 3.98 µM (inactive) | Ki [14]: > 2 µM (inactive) | Ki [15]: > 3.16 µM (inactive) | Ki [16]: > 7.94 µM (inactive) | Ki [17]: 3.16 µM (active) | Ki [18]: > 3.98 µM (inactive) | Ki [19]: > 3.98 µM (inactive) | Ki [20]: > 6.31 µM (inactive)
